From patent publication US8470311B2, “Therapeutic agent for anaerobic diseases” (priority 2008, dated 2013)
“Also recorded” adds a separate entry of the source.

What was measured:
[1] = test system: Human stomach cancer cell line MKN45; test: Tumor growth suppression by B. longum Re-105A/pBifiCD, 5-FC and maltose, MKN45 tumor-bearing nude rats; type: in vivo, nude rat; settings: maltose 200 mg/body/day ip with bacteria and 5-FC
[2] = test system: Human breast cancer cell line KPL-1; settings: 10% maltose ip versus saline
[3] = test system: Human breast cancer cell line KPL-1; test: Tumor growth suppression by B. longum Re-105A/pBifiCD, 5-FC and maltose or lactulose, KPL-1 tumor-bearing nude mice; type: in vivo, nude mouse

OC[C@H]1O[C@H](O[C@H]2[C@H](O)[C@@H](O)[C@H](O)O[C@@H]2CO)[C@H](O)[C@@H](O)[C@@H]1O [Maltose]
Effect of maltose, conclusion of the test [1]: effect in promoting specific colonization of B. longum Re-105A/pBifiCD in tumor tissue, and an effect in promoting proliferation and an effect in maintaining proliferation in tumor tissue
Effect of maltose on colonization and proliferation in tumor tissue [2]: effect in promoting specific colonization of B. longum Re-105A/pBifiCD in tumor tissue; also recorded: effect in promoting the proliferation and an effect of maintaining the proliferation of B. longum Re-105A/pBifiCD in tumor tissue

OC[C@H]1O[C@@H](O[C@@H]2[C@@H](CO)OC(O)(CO)[C@H]2O)[C@H](O)[C@@H](O)[C@H]1O (mixture of isomers) [lactulose]
Mice died during test ([3]; Group C: bacteria, 5-FC, 20% (w/v) lactulose 1 mL ip once a day, deaths Day 13 and Day 19): two mice had died during the administration period
Effect of lactulose, conclusion of the test ([3]; lactulose 200 mg/day ip with bacteria and 5-FC): can enhance the antitumor effect of B. longum Re-105A/pBifiCD
